Reference: PMC10051560, “Identification and Functional Characterization of General Odorant Binding Proteins in Orthaga achatina” (Insects, 2023)
Read-outs that look alike come from different tables or passages of the source.

Tests used:
[1] = target: OachGOBP1; experiment: Fluorescence competitive binding assay (1-NPN displacement), OachGOBP1; set-up: species or system Orthaga achatina; settings: 2 µM protein and 2 µM 1-NPN in 50 mM Tris HCl; for Ki: Ki = [IC50]/(1 + [1-NPN]/K1-NPN), read-out: GOBP1 Ki; for IC50: competitive ligand replacing 50% 1-NPN, read-out: GOBP1 IC50
Method: (§1) A fluorescence competition binding assay was used to test the binding properties of GOBPs to 22 plant volatiles of camphor [22, 23] and 4 sex pheromones of O. achatina. The fluorescence competitive binding assay was conducted on an F-7000 fluorescence spectrophotometer with a 1 cm light path quartz cuvette and 10 nm slits for excitation and emission. The excitation wavelength was 337 nm, and the emission spectrum was recorded between 380 and 460 nm. Firstly, the binding characteristics of 1-NPN to protein were detected. We dissolved 2 µM protein in 50 mM Tris HCl (pH = 7.4), then gradually added 1 mM 1-NPN to make its concentration reach 2, 4, 6, 8, 10, 12, 14, 16 and 20 µM, recorded the fluorescence value, and then calculated the binding constant between 1-NPN and the recombinant protein using the Scatchard equation.
When studying the binding constant between odorant and recombinant protein, 1-NPN was used as a fluorescence reporter. We dissolved 2 µM protein and 2 µM 1-NPN in 50 mM Tris HCl, and then gradually added the ligand. […] In order to determine the binding concentration of protein, the free radical concentration was plotted with the fluorescence intensity of the maximum emission spectrum. It was assumed that the protein activity was 100% and the binding ratio of protein to ligand was 1:1 in the saturated state. The curve was linearized by the Scatchard method. […] The calculation formula was: Ki = [IC50]/(1 + [1-NPN]/K1-NPN), where [1-NPN] is the concentration of unbound 1-NPN and K1-NPN is the dissociation concentration of protein/1-NPN complex.

[2] = target: T1, OachGOBP2 (Orthaga achatina, UniProt H6UEU3); experiment: Fluorescence competitive binding assay (1-NPN displacement), OachGOBP2; settings: for Ki: Ki = [IC50]/(1 + [1-NPN]/K1-NPN), read-out: GOBP2 Ki; for binding to GOBP2 (in words): fluorescence competitive binding
T1 sequence (H6UEU3 entry or part of it): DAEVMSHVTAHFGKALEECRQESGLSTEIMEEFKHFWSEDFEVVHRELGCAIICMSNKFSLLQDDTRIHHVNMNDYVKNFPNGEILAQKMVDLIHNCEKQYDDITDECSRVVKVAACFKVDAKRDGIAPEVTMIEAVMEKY
Method: as §1
When studying the binding constant between odorant and recombinant protein, 1-NPN was used as a fluorescence reporter. We dissolved 2 µM protein and 2 µM 1-NPN in 50 mM Tris HCl, and then gradually added the ligand. All the ligands were diluted in methanol (AR, content greater than 99.5%). The concentration of pheromone component was 0.5–10 µM and the concentration of plant volatile was 1–32 µM. In order to determine the binding concentration of protein, the free radical concentration was plotted with the fluorescence intensity of the maximum emission spectrum. It was assumed that the protein activity was 100% and the binding ratio of protein to ligand was 1:1 in the saturated state. The curve was linearized by the Scatchard method. Then, the concentration of competitive binding ligand was calculated according to the IC50 value (the concentration when competitive ligand can replace 50% 1-NPN). The calculation formula was: Ki = [IC50]/(1 + [1-NPN]/K1-NPN), where [1-NPN] is the concentration of unbound 1-NPN and K1-NPN is the dissociation concentration of protein/1-NPN complex.

[3] = target: OachGOBP1; experiment: Binding of fluorescent probe 1-NPN to OachGOBP1 (Scatchard); set-up: species or system Orthaga achatina; settings: 2 µM protein in 50 mM Tris HCl pH 7.4, Scatchard; read-out: dissociation constant (K1-NPN) to OachGOBP1
Method: as §1

[4] = target: T1, OachGOBP2; experiment: Binding of fluorescent probe 1-NPN to OachGOBP2 (Scatchard); settings: 2 µM protein in 50 mM Tris HCl pH 7.4, Scatchard; read-out: dissociation constant (K1-NPN) to OachGOBP2
Method: as §1

[5] = 2 µM protein and 2 µM 1-NPN in 50 mM Tris HCl
[6] = competitive ligand replacing 50% 1-NPN, 2 µM protein and 2 µM 1-NPN in 50 mM Tris HCl, read-out: GOBP2 IC50

Compound | Ki [1] [µM] | IC50 [1] [µM] | Ki [2, 5] [µM] | IC50 [2, 6] [µM] | Kd [3] [µM] | Kd [4] [µM] | binding to GOBP2 (in words) [2] | IC50 [2] [µM] | binding capacity class to OachGOBP2 (sex pheromones) ([2]; class by Ki, sex pheromones)
CCCCCCO [1-Hexanol] | > 30 | > 32 | > 30 | > 32 |  |  |  |  | 
c1ccc(Nc2cccc3ccccc23)cc1 [1-NPN] |  |  |  |  | 9.95 | 4.91 |  |  | 
C=C1C2CCC(C2)C1(C)C (stereo not shown) [Camphene] | > 30 | > 32 | > 30 | > 32 |  |  | did not bind |  | 
CC12CCC(CC1=O)C2(C)C (stereo not shown) [Camphor] | > 30 | > 32 | 17.5 | 20.7 |  |  |  |  | 
O=C/C=C/c1ccccc1 [Cinnamaldehyde] | > 30 | > 32 |  |  |  |  |  | > 32 | 
CCC/C=C/C=O [E2-Hexenal] | > 30 | > 32 | > 30 | > 32 |  |  |  |  | 
CC12CCC(CC1)C(C)(C)O2 [Eucalyptol] | > 30 | > 32 | > 30 | > 32 |  |  |  |  | 
CC(C)=CCC/C(C)=C/CC/C(C)=C/CO [Farnesol] | 9.49 | 10.9 | 7.33 | 8.68 |  |  |  |  | 
CC(C)=CCC/C(C)=C/CO [Geraniol] | > 30 | > 32 |  |  |  |  |  | > 32 | 
O=CCCCC=O [Glutaraldehyde] | > 30 | > 32 |  |  |  |  |  | > 32 | 
CCCCCCOC(C)=O [Hexyl acetate] | > 30 | > 32 | > 30 | > 32 |  |  |  |  | 
C=C(C)[C@H]1CC=C(C)CC1 [Limonene] | > 30 | > 32 | > 30 | > 32 |  |  |  |  | 
C=CC(C)(O)CCC=C(C)C (stereo not shown) [Linalool] | > 30 | > 32 |  |  |  |  |  | 13.9 | 
C=CC(C)=CCC=C(C)C [Ocimene] | > 30 | > 32 | > 30 | > 32 |  |  |  |  | 
CC/C=C\C/C=C\C/C=C\C/C=C\C/C=C\CCCCCCC [Z3, Z6, Z9,Z12,Z15–23: H] | > 30 | > 32 | > 30 | > 32 |  |  |  |  | 
CC/C=C\CCO [Z3-Hexen-1-ol] | > 30 | > 32 | 18.2 | 21.4 |  |  |  |  | 
CC/C=C\CC=O [Z3-Hexenal] | > 30 | > 32 | > 30 | > 32 |  |  | did not bind |  | 
CC/C=C\CCOC(C)=O [Z3-Hexenyl acetate] | > 30 | > 32 | 14.3 | 16.8 |  |  |  |  | 
CCCC/C=C\CCCCCCCCCC=O [Z11-16: Ald] | > 30 | > 32 |  | > 32 |  |  |  |  | 
CCCC/C=C\CCCCCCCCCCOC(C)=O [Z11-16: OAc] | > 30 | > 32 | 2.84 | 3.3 |  |  |  |  | moderate (2 μM < Ki < 5 μM indicates moderate binding affinity)
CCCC/C=C\CCCCCCCCCCO [Z11-16: OH] | 1.57 | 1.79 | 3.3 | 3.86 |  |  |  |  | 
C=C/C(C)=C/C/C=C(\C)CCC=C(C)C [α-Farnesene] | > 30 | > 32 | 13.4 | 15.9 |  |  |  |  | 
CC(=O)/C=C/C1C(C)=CCCC1(C)C (stereo not drawn) [α-Ionone] | > 30 | > 32 |  |  |  |  |  | > 32 | 
CC1=CC[C@H](C(C)C)C=C1 [α-Phellandrene] | > 30 | > 32 |  |  |  |  |  | 10.2 | 
C=CC(=C)CC/C=C(\C)CCC=C(C)C [β-Farnesene] | > 30 | > 32 | > 30 | > 32 |  |  |  |  | 
CC(=O)/C=C/C1=C(C)CCCC1(C)C [β-Ionone] | > 30 | > 32 |  |  |  |  |  | 17.8 | 
C=C1CCC2CC1C2(C)C (stereo not drawn) [β-Pinene] | > 30 | > 32 |  |  |  |  |  | > 32 | 
